The source of these data is patent US20250382322A1, “DIAGNOSTICS FOR DETECTING ECTO-5'-NUCLEOTIDASE (CD73)” (EBERHARD KARLS UNIVERSITÄT TÜBINGEN, priority 2022, published 2025).

The target of assay [1] is T1, recombinant soluble human CD73 (Homo sapiens, UniProt P21589, T376A).
T1 construct: mature human CD73 (residues 27-549) fused to 6×His-tag at the C-terminus; 6xHis (C); made in house; host or cells: Spodoptera frugiperda Sf9 insect cells (baculovirus, pAcGP67B vector)
T1 sequence (P21589 27-549 T376A): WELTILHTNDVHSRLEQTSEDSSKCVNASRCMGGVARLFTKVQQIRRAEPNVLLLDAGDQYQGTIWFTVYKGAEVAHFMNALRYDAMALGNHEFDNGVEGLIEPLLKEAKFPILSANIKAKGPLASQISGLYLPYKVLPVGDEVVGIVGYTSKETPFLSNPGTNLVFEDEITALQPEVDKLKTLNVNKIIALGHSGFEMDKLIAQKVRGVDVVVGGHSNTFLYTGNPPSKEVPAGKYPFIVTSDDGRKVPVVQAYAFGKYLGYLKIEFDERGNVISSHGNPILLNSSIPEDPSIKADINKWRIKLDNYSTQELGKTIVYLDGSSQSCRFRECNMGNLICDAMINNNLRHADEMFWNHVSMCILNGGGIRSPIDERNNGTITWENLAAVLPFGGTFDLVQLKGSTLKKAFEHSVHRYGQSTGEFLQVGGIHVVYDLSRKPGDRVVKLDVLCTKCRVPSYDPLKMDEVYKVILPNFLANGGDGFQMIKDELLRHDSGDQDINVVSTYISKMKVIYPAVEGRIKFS
The assay is described as follows: CD73 enzyme inhibition assay with [2,8-3H]AMP, soluble human CD73. The assay is classed as biochemical. Particulars: [2,8-3H]AMP (5 μM) as substrate; Ki from IC50 by Cheng-Prusoff; read-out: Human soluble CD73 Ki ± SEM. The protocol:
Compound 2b, its precursor 1, and 20 were investigated for their CD73-inhibitory potency using tritium-labeled AMP as a substrate.^20 After incubation with CD73, non-hydrolyzed substrate and inorganic phosphate were precipitated using a solution of lanthanum chloride, and the precipitate was separated from the solution containing the reaction product [2,8-^3H]adenosine by filtration through GF/B glass fiber filters (WhatmanTM GE Healthcare, Chicago, IL, USA) using a cell harvester (M-48, Brandel, Gaitherburg, MD, USA). The filtrates (ca. 1.8 mL each) were transferred to scintillation vials, scintillation cocktail ULTIMA Gold XR (PerkinElmer, Waltham, MA, USA) was added (5 mL), and the radioactivity esd quantified by scintillation counting. CD73 preparations were (1) recombinant soluble human CD73,^13 (2) recombinant soluble rat CD73,^21 both expressed in Spodoptera frugiperda 9 (Sf) cells, (3) membrane preparations of MDA-MB-231 cells,^16 a human triple-negative breast cancer cell line with high expression of CD73,^18 and (4) membrane preparations of the 4T1.2 cell line, a mouse CD73-expressing breast cancer cell line.^22 The potency of the compounds was determined by measurements of full concentration-inhibition curves. K values were calcuated from the obtained IC50 values employing the Cheng-Prusoff equation.^23
Human soluble CD73 was expressed in Spodoptera frugiperda (Sf9) insect cells and purified as previously described.^16 The cDNA encoding for the mature human CD73 (residues 27-549) fused to 6×His-tag at the C-terminus (Genbank accession no. NM_002526) corresponding to the natural variant T376A (P21589/VAR_022091, UniProtKB/Swiss-Prot) was ligated into the pAcGP67B vector. For transfection, 1 μl of the recombinant vector (1000 ng/μl) mixed with 2.5 μl of baculovirus genomic DNA ProEasy™ (AB vector, CA, USA) was used to transfect Sf9 cells grown in Insect-XPRESS™ medium (#BE12-7300, Lonza, Switzerland) supplemented with 10 mg/l gentamicin. […]

In assay [2] the target is T2, human P2Y1 receptor (Homo sapiens, UniProt P47900).
T2 construct: expressed in transfected cells; host or cells: 1321N1 astrocytoma cells (printed '1231N1 astrocytomna cells')
T2 sequence (P47900 whole entry): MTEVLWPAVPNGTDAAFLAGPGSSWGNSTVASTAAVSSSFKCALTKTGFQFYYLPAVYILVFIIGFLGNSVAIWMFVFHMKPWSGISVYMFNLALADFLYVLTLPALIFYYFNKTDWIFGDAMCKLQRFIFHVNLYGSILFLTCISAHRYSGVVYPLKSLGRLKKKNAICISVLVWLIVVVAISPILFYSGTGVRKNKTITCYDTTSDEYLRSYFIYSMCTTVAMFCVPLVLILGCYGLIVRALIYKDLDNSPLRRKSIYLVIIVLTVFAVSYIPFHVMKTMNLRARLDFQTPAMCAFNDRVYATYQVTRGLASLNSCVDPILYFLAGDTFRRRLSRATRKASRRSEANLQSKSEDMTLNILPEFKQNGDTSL
The assay is described as follows: Calcium mobilization assay at P2Y1 receptor. The assay is classed as cell-based. Particulars: 1231N1 astrocytoma cells. The protocol:
Interaction of 2 with the ADP-activated human P2Y1 receptor, which is Gq protein-coupled, was determined by calcium mobilization assays. The receptor was stably expressed in 1231N1 astrocytomna cells^25, 26 (for results see Table 2). Compound 20 was not tested at the P2Y1 receptor since the fluorescent compound would interfere with the calcium mobilization assay.

The Ki is a measure of affinity in units of concentration, obtained from inhibition or displacement. The term IC50 denotes the midpoint of a concentration-inhibition curve. A word on the EC50: it is the midpoint of the concentration-response curve. `CCCN(Cc1ccc(-c2cn(CCF)nn2)cc1)c1nc(Cl)nc2c1ncn2[C@@H]1O[C@H](COP(=O)(O)CP(=O)(O)O)C(O)C1O` (stereo partly shown) [Compound 2]: the Ki in assay [1] turned out to be 1.02 ± 0.11 nM. The IC50 in assay [2] (2-methylthio-ADP as agonist at EC80 (3 μM), read-out: Inhibition P2Y1 receptor IC50) is greater than 10000 nM. The 50% effective concentration (EC50) in assay [2] (read-out: Activation P2Y1 receptor EC50) is greater than 10000 nM.
As to `O=C(NCCCCCCNC(=O)c1ccc2c(c1)C1(OC2=O)c2ccc(O)cc2Oc2cc(O)ccc21)c1ccc(CNc2nc(Cl)nc3c2ncn3[C@@H]2O[C@H](COP(=O)(O)CP(=O)(O)O)[C@@H](O)[C@H]2O)cc1` [Compound 20, (((((2R,3S,4R,5R)-5-(2-chloro-6-((4-((6-(3′,6′-dihydroxy-3-oxo-3H-spiro[isobenzofuran-1,9′-xanthene]-6-carboxamido)-hexyl)carbamoyl)benzyl)amino)-9H-purin-9-yl)-3,4-dihydroxytetrahydrofuran-2-yl)methoxy)(hydroxy)phosphoryl)methyl)phosphonic acid], the inhibition constant (Ki) in assay [1] worked out at 5.96 ± 0.85 nM.
